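These data come from cells grown in 96-well plates and exposed to compound for 48 hours at five concentrations. TGI marks complete inhibition of growth.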
Tests used:
Test in all cases: inhibition of tumour cell growth, NCI panel, 48 h
[1] = system: NCI/ADR-RES ovarian
[2] = system: HCC-2998 colon
[3] = system: LOX IMVI melanoma
[4] = system: MDA-MB-231 breast
[5] = system: SR leukemia
[6] = system: M14 melanoma
[7] = system: SF-268 CNS
[8] = system: SNB-19 CNS
[9] = system: OVCAR-3 ovarian
[10] = system: NCI-H23 lung
[11] = system: SF-295 CNS
[12] = system: HL-60(TB) leukemia
[13] = system: RXF 393 renal
[14] = system: MCF7 breast
[15] = system: MOLT-4 leukemia
[16] = system: U251 CNS
[17] = system: NCI-H522 lung
[18] = system: CCRF-CEM leukemia
[19] = system: SK-MEL-5 melanoma
[20] = system: HT29 colon
[21] = system: MDA-N
[22] = system: HCT-15 colon
[23] = system: HOP-62 NSCLC
[24] = system: SK-OV-3 ovarian
[25] = system: 786-0 renal
[26] = system: COLO 205 colon
[27] = system: A549 NSCLC
[28] = system: SK-MEL-28 melanoma
[29] = system: OVCAR-4 ovarian
[30] = system: MDA-MB-435
[31] = system: SNB-75 CNS
[32] = system: OVCAR-8 ovarian
[33] = system: BT-549 breast
[34] = system: KM12 colon
[35] = system: T-47D breast
[36] = system: UACC-257 melanoma
[37] = system: SF-539 CNS
[38] = system: RPMI-8226 leukemia
[39] = system: K-562 leukemia
[40] = system: SN12C renal
[41] = system: UACC-62 melanoma
[42] = system: HCT-116 colon
[43] = system: HOP-92 NSCLC
[44] = system: DU-145 prostate
[45] = system: PC-3 prostate
[46] = system: NCI-H460 lung
[47] = system: UO-31 renal
[48] = system: SW-620 colon
[49] = system: IGROV1 ovarian
[50] = system: OVCAR-5 ovarian

## Cc1cccc(-c2nc(-c3cnccn3)n(Cc3ccccc3)n2)c1
[1]
  TGI: > 100 µM
[2]
  TGI: > 100 µM
[3]
  TGI: > 100 µM
[4]
  TGI: > 100 µM
[5]
  TGI: > 100 µM
[6]
  TGI: > 100 µM
[7]
  TGI: > 100 µM
[8]
  TGI: > 100 µM
[9]
  TGI: > 100 µM
[10]
  TGI: > 100 µM
[11]
  TGI: > 100 µM
[12]
  TGI: > 100 µM
[13]
  TGI: 94.1 µM
[14]
  TGI: > 100 µM
[15]
  TGI: > 100 µM
[16]
  TGI: > 100 µM
[17]
  TGI: > 100 µM
[18]
  TGI: > 100 µM
[19]
  TGI: > 100 µM
[20]
  TGI: > 100 µM
[21]
  TGI: > 100 µM
[22]
  TGI: > 100 µM
[23]
  TGI: > 100 µM
[24]
  TGI: > 100 µM
[25]
  TGI: > 100 µM
[26]
  TGI: > 100 µM
[27]
  TGI: > 100 µM
[28]
  TGI: > 100 µM
[29]
  TGI: > 100 µM
[30]
  TGI: > 100 µM
[31]
  TGI: 30.2 µM
[32]
  TGI: > 100 µM
[33]
  TGI: > 100 µM
[34]
  TGI: > 100 µM
[35]
  TGI: > 100 µM
[36]
  TGI: > 100 µM
[37]
  TGI: > 100 µM
[38]
  TGI: > 100 µM
[39]
  TGI: > 100 µM
[40]
  TGI: > 100 µM
[41]
  TGI: > 100 µM
[42]
  TGI: > 100 µM
[43]
  TGI: 79.6 µM
[44]
  TGI: > 100 µM
[45]
  TGI: > 100 µM
[46]
  TGI: > 100 µM
[47]
  TGI: > 100 µM
[48]
  TGI: > 100 µM
[49]
  TGI: > 100 µM
[50]
  TGI: > 100 µM

— PubChem BioAssay (NCI)
